Laboratory results published in ChEMBL document CHEMBL1681717, “Design and synthesis of a novel, orally active, brain penetrant, tri-substituted thiophene based JNK inhibitor” (Bioorg Med Chem Lett, 2011).
pIC50: −log10 of the molar value.

Experiments:
[1] = target: Mitogen-activated protein kinase 10 (Homo sapiens, UniProt P53779); assay: Inhibition of recombinant JNK3 after 60 mins by TR-FRET assay
[2] = target: Mitogen-activated protein kinase 9 (Homo sapiens, UniProt P45984); assay: Inhibition of recombinant JNK2 after 60 mins by TR-FRET assay
Sequence of Mitogen-activated protein kinase 9 (P45984 whole entry): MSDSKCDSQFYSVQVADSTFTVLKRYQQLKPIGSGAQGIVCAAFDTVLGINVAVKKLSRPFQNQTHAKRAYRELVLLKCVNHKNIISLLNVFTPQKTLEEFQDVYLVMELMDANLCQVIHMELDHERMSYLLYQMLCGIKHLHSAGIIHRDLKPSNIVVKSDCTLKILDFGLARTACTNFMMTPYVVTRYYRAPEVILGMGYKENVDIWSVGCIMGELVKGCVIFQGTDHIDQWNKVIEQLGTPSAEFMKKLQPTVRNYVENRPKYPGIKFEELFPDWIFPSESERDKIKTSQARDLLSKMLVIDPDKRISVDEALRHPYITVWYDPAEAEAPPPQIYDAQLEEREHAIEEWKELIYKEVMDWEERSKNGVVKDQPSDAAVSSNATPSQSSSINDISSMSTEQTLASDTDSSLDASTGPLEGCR

[3] = target: Mitogen-activated protein kinase 8 (Homo sapiens, UniProt P45983); assay: Inhibition of recombinant JNK1 after 60 mins by TR-FRET assay
Sequence of Mitogen-activated protein kinase 8 (P45983 whole entry): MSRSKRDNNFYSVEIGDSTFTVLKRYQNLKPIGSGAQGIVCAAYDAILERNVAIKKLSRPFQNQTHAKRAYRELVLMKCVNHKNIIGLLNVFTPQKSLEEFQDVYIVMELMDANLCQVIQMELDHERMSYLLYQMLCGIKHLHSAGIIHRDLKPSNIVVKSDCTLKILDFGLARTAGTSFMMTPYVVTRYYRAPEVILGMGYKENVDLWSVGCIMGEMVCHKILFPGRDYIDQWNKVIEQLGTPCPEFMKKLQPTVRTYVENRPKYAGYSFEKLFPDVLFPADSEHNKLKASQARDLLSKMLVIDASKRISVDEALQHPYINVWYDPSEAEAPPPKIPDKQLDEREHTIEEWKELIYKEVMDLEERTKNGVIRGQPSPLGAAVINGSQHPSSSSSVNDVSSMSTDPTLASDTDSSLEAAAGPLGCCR

[4] = target: Mitogen-activated protein kinase 14 (Homo sapiens, UniProt Q16539); assay: Inhibition of recombinant p38alpha after 60 mins by TR-FRET assay
Sequence of Mitogen-activated protein kinase 14 (Q16539 whole entry): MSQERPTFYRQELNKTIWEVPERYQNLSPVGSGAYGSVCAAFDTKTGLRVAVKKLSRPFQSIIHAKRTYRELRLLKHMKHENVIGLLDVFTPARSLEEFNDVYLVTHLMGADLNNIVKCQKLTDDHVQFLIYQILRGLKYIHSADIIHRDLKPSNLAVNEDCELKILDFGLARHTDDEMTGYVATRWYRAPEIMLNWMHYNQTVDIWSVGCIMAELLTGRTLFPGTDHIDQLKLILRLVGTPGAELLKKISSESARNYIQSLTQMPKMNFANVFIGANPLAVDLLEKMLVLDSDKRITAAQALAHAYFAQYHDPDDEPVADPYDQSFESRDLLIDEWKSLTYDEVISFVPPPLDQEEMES

[5] = target: Mitogen-activated protein kinase 1 (Homo sapiens, UniProt P28482); assay: Inhibition of recombinant ERK2 after 60 mins by TR-FRET assay
Sequence of Mitogen-activated protein kinase 1 (P28482 whole entry): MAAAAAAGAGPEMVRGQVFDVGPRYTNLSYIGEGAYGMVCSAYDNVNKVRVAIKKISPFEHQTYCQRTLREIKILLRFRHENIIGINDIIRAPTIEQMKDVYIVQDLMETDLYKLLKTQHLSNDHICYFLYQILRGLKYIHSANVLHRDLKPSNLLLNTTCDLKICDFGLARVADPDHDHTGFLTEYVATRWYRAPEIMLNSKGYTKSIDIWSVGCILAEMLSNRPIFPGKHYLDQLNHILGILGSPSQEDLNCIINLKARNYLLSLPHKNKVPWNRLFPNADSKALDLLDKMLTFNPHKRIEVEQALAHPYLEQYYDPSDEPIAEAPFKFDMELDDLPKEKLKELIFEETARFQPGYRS

MDR1 [6] = assay: Apparent permeability of the compound from apical to basolateral direction in MDCK2 cells expressing MDR1; format: ADME, cell-based, Canis lupus familiaris, MDCK-II; details: dog, MDCK-MDR1
MDR1 [7] = assay: Efflux ratio of permeability from basolateral to apical side over apical to basolateral side in MDCK2 cells expressing MDR1; format: ADME, cell-based, Canis lupus familiaris, MDCK-II; details: dog, MDCK-MDR1
[8] = Oxidative metabolic stability in mouse liver microsomes assessed as compound remaining at 5 uM after 120 mins; format: ADME, Microsome; details: read-out: Stability
[9] = Oxidative metabolic stability in human liver microsomes assessed as compound remaining at 5 uM after 120 mins; format: ADME, Microsome; details: read-out: Stability
[10] = Solubility of the compound in hank's buffered salt solution; format: physicochemical

Sequence of Mitogen-activated protein kinase 10 (P53779 whole entry): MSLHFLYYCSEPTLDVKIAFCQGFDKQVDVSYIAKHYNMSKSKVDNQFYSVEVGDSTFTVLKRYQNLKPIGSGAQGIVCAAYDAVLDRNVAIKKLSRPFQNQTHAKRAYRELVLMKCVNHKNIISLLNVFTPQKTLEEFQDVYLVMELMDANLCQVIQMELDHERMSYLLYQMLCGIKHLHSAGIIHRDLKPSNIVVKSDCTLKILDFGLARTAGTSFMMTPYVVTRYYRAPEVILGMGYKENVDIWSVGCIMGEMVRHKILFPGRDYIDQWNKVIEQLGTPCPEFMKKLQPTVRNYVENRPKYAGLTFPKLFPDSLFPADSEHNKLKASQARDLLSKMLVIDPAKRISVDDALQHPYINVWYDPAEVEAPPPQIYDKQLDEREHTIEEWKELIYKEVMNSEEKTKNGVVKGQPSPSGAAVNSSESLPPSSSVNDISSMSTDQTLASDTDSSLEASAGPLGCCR

| SMILES | pIC50 [1] | pIC50 [2] | pIC50 [3] | pIC50 [4] | pIC50 [5] | Papp A→B (MDR1 [6]) [×10⁻⁶ cm/s] | efflux ratio (MDR1 [7]) | remaining at 2 h, 5 µM [8] [%] | remaining at 2 h, 5 µM [9] [%] | solubility [10] [µM] |
| --- | --- | --- | --- | --- | --- | --- | --- | --- | --- | --- |
| CCc1csc(NC(=O)Cc2ccc(OC)cc2)c1C(=O)OC | 5.04 | 4.65 | 4.71 | – | – | – | – | – | – | – |
| Cc1n[nH]c(-c2c(C)csc2NC(=O)Cc2ccc(OCCCN3CCCCC3)cc2)n1 | 6.71 | 5.79 | 6.33 | < 5.30 | < 5.30 | – | – | – | – | – |
| COC(=O)c1c(C)csc1NC(=O)Cc1cccc2ncccc12 | 6.96 | 6.39 | 7.26 | – | – | – | – | – | – | – |
| CCOC(=O)c1c(C#N)csc1NC(=O)Cc1ccc(OC)cc1 | 6.51 | 6.03 | 6.46 | – | – | – | – | – | – | – |
| COC(=O)c1c(C)csc1NC(=O)Cc1ccc(OCCCN2CCCC2)cc1 | 6.65 | 5.59 | 6.55 | – | – | – | – | – | – | – |
| O=C(Cc1cccc2ncccc12)Nc1scc(Br)c1-c1ncn[nH]1 | 7.47 | 7.05 | 7.38 | < 4.30 | < 4.30 | – | – | – | – | – |
| Cc1n[nH]c(-c2c(C)csc2NC(=O)Cc2cccc3nccnc23)n1 | 6.23 | 6.64 | 6.53 | < 5.30 | < 5.30 | – | – | – | – | – |
| COC(=O)c1c(C)csc1NC(=O)Cc1ccc(-c2ccncc2)cc1 | 6.58 | 5.74 | 6.55 | – | – | – | – | – | – | – |
| COC(=O)c1c(C)csc1NC(=O)Cc1ccc(OC)cc1 | 6.15 | 5.50 | 6.23 | – | – | – | – | – | – | – |
| O=C(CN1C(=O)CCc2ccccc21)Nc1scc(Cl)c1-c1ncn[nH]1 | 8.30 | 8.05 | 8.40 | < 4.30 | < 4.30 | 23.3 | 0.9 | 0 | 20 | – |
| COC(=O)c1c(C)csc1NC(=O)CN1C(=O)CCc2ccccc21 | 6.90 | 6.15 | 7.11 | – | – | – | – | – | – | – |
| Cc1n[nH]c(-c2c(C)csc2NC(=O)CN2C(=O)CCc3ccccc32)n1 | 7.60 | 7.38 | 7.82 | < 4.30 | < 4.30 | – | – | – | – | – |
| N#Cc1csc(NC(=O)CN2C(=O)CCc3ccccc32)c1-c1ncn[nH]1 | 8.22 | 8.10 | 8.05 | < 4.30 | < 4.30 | 18 | 4.1 | 37 | 39 | – |
| COC(=O)c1sccc1NC(=O)Cc1cccs1 | – | 4.64 | – | < 4.30 | < 4.30 | 14.4 | – | – | – | 72 |
| O=C(Cc1cccc2ncccc12)Nc1scc(Cl)c1-c1ncn[nH]1 | 7.74 | 7.38 | 7.82 | < 4.30 | < 4.30 | – | – | – | – | – |
| Cc1nnc(-c2c(C)csc2NC(=O)Cc2ccc(-c3ccncc3)cc2)[nH]1 | 6.49 | – | – | < 5.30 | < 5.30 | – | – | – | – | – |

| SMILES | pIC50 [1] | pIC50 [2] | pIC50 [3] | pIC50 [4] | pIC50 [5] | Papp A→B (MDR1 [6]) [×10⁻⁶ cm/s] | efflux ratio (MDR1 [7]) | remaining at 2 h, 5 µM [8] [%] | remaining at 2 h, 5 µM [9] [%] | solubility [10] [µM] |
| --- | --- | --- | --- | --- | --- | --- | --- | --- | --- | --- |
| C#Cc1csc(NC(=O)Cc2ccc(OC)cc2)c1C(=O)OCC | 5.52 | 4.55 | 5.98 | – | – | – | – | – | – | – |
| O=C(Cc1cccc2cnccc12)Nc1scc(Br)c1-c1ncn[nH]1 | 7.48 | 7.30 | 7.55 | < 4.30 | < 4.30 | – | – | – | – | – |
| Cc1csc(NC(=O)Cc2cccc3ncccc23)c1-c1ncn[nH]1 | – | 6.90 | – | < 4.30 | < 4.30 | 16.1 | – | 1 | 46 | – |
| N#Cc1csc(NC(=O)Cc2cccc3cnccc23)c1-c1ncn[nH]1 | 8.15 | 7.59 | 7.96 | < 4.30 | < 4.30 | 13.3 | 4.6 | 48 | 62 | – |
| COC(=O)c1c(C)csc1NC(=O)Cc1cccc2cnccc12 | 7.21 | 6.06 | 7.51 | – | – | – | – | – | – | – |
| CCOC(=O)c1c(C2CC2)csc1NC(=O)Cc1ccc(OC)cc1 | 5.02 | 5.20 | 4.81 | – | – | – | – | – | – | – |
| N#Cc1csc(NC(=O)Cc2cccc3ncccc23)c1-c1nnc[nH]1 | 7.92 | 7.39 | 7.92 | < 4.30 | 4.45 | – | – | – | – | – |
| COC(=O)c1c(C)csc1NC(=O)Cc1cccc2cc[nH]c12 | 5.99 | 5.38 | 6.16 | – | – | – | – | – | – | – |
| COc1ccc(CC(=O)Nc2scc(C)c2-c2nc(C)n[nH]2)cc1 | 6.33 | 6.08 | 6.48 | – | – | – | – | – | – | – |
| COC(=O)c1c(C)csc1NC(=O)Cc1ccc(OCCCn2ccnc2)cc1 | 6.30 | 5.34 | 6.22 | – | – | – | – | – | – | – |
| O=C(CN1C(=O)CCc2ccccc21)Nc1scc(Br)c1-c1ncn[nH]1 | 7.55 | 7.38 | 7.60 | < 4.70 | < 4.30 | – | – | – | – | – |
| CCOC(=O)c1c(C(F)(F)F)csc1NC(=O)Cc1ccc(OC)cc1 | 4.41 | < 4.30 | 4.72 | – | – | – | – | – | – | – |
| Cc1csc(NC(=O)CN2C(=O)CCc3ccccc32)c1-c1ncn[nH]1 | – | 7.51 | 7.49 | < 4.30 | < 4.30 | 14.8 | 3.2 | 0 | 0 | – |
| Cc1n[nH]c(-c2c(C)csc2NC(=O)Cc2cccc3ncccc23)n1 | 7.10 | 7.09 | 7.35 | < 4.30 | < 4.30 | – | – | – | – | – |
| COC(=O)c1c(C)csc1NC(=O)Cc1cccc2nccnc12 | 6.79 | 6.12 | 7.02 | – | – | – | – | – | – | – |
| COC(=O)c1c(C)csc1NC(=O)Cc1ccc(OCCCN2CCCCC2)cc1 | 7.00 | 6.21 | 6.53 | – | – | – | – | – | – | – |
